Experimental data published in US20250302929A1, “TUMOR NEOANTIGENIC PEPTIDES” (INSTITUT CURIE, priority 2021, published 2025).
Entries after “also recorded” stand apart in the source; their conditions may differ.

Legend:
[1] = test system: CD8+ T cells from HLA-A2+ healthy donors; assay: Priming of naive CTLs, in vitro immunogenicity assay, tetramer staining; type: cell-based, human; settings: for expansion of specific CD8+ T cells (tetramer positive): one donor, versus co-culture without peptides; for specific CD8+ T expansions (immunogenicity): total of 6 donors, FIG. 11A
Description: Priming of naïve CTLs. PBMCs were obtained by Ficoll gradient separation from HLA-A2+ healthy blood donors. CD14+, CD4+ and CD8+ cells were purified by positive selection using magnetic beads (Miltenyi Biotec). While CD4+ and CD8+ T cells were cryopreserved until the experiment day, CD14+ fraction was cultured in the presence of IL-4 (50 ng/ml) and GM-CSF (10 ng/mL) at 10^6 cells/mL during 5 days to obtain moDCs. After this period of time, the moDCs were maturated with LPS and incubated with synthetic ER-derived peptides at a final concentration of 1 μg/mL for 2 hours. Finally, peptide-loaded moDCs were co-cultured with autologous CD4+ and CD8+ T cells in culture medium supplemented with IL-2 (10U/ml) and IL-7 (100 ng/ml). The ER-derived peptide stimulation of specific CD8+ CTL populations was assessed by MHC-I tetramer staining by flow cytometry using a combination of two-color tetramer for each peptide.
(§1) Tetramer Staining. Cells were resuspended in PBS, stained with Live/Dead Aqua-405 nm (ThermoFisher) during 20 minutes at 4° C. and washed once. After that, cells were resuspended in PBS-1% BSA containing the mix of SA-coupled tetramers and incubated in the dark at room temperature during 20 minutes. Without further washing, surface antibodies were added in PBS-1% BSA and cells were incubated 20 minutes in the dark at 4° C. Surface antibodies were a combination of anti-CD3-BV650+ anti-CD8-PECy7 in combination with anti-CCR7-AF700+ anti-CD45RA-BUV395 when required. Finally, cells were washed twice and resuspended in FACS buffer for flow cytometry analysis.
The following step after binding validation to HLA-A2 allele, was to test the immunogenicity of predicted peptides. Priming assays were thus performed to test the ability of identified peptides to expand specific cytotoxic T cells. PBMCs from HLA-A2+ healthy donors were used to generate monocyte derived-DCs (moDCs). After loading the moDCs with a mix of synthetic peptides, autologous co-culture was performed with CD4+ and CD8+ T cells. Finally, the expansion of specific CD8+ T cells was analysed by flow cytometry using two-colours tetramer staining. As a control of specific expansion, the co-culture was performed in the absence of peptides.

[2] = test system: CD8+ T cells from tumor, juxta tumor, lymph nodes and blood of LUAD patients; assay: Tetramer staining of TILs and CD8+ T cells from LUAD patient samples; type: cell-based, human; settings: TILs from LUAD patients expanded with peptide mix + IL-2 or IL-2 only
Description: In experiments addressed to evaluate the presence of specific CD8+ T cells, the tetramerization step was performed by incubating the monomers with different combinations of fluorescent streptavidin (PE, APC, PE-Cy5, PE-CF594, BV421, BV711 and FITC).
as §1, with “analysis. […]” for “analysis.”
Tumor infiltrating lymphocytes (TILs) cultures. […] Cells were feed/split as necessary during 15-20 days and cryopreserve or analyzed for tetramer staining.
In a first set of experiments tumor infiltrating lymphocytes (TILs) expanded with a mix of TE-derived peptides and Il-2, or only with Il-2, were analyzed by tetramer staining. […]
In a second cohort of 5 primary, untreated, LUAD tumor, juxta-tumor, tumor-draining lymph node and blood samples from LUAD cancer HLA-A2+ patients were analyzed. […]

| Sequence | expansion of specific CD8+ T cells (tetramer positive) [1] | specific CD8+ T expansions (immunogenicity) [1] | tetramer positive CD8+ T cells in TILs [2] |
| --- | --- | --- | --- |
| RLADHLSFC | expand specific CD8+ T cells | specific CD8+ T expansions; also recorded: immunogenic |  |
| ILSGYGPCV |  | specific CD8+ T expansions |  |
| FLIVAEILI | expand specific CD8+ T cells |  |  |
| ILTASITSI |  | specific CD8+ T expansions |  |
| VLMWTMAHL |  | specific CD8+ T expansions |  |
| GLPSHVELA |  | specific CD8+ T expansions; also recorded: immunogenic | TILs recognizing |
| VLLTNTIWL |  | specific CD8+ T expansions |  |
| LLHLESFLV |  | specific CD8+ T expansions |  |
| LLDRFGYHV |  | specific CD8+ T expansions |  |
| RQAPGFHHA |  | specific CD8+ T expansions |  |
| MLMKTVWQA |  | specific CD8+ T expansions |  |
| AMDGKELSL |  | specific CD8+ T expansions |  |
| AILPKANTV | expand specific CD8+ T cells | specific CD8+ T expansions |  |
| RLLHLESFL | expand specific CD8+ T cells | specific CD8+ T expansions |  |
| GLLNISHTA |  | specific CD8+ T expansions |  |
| YLQGLPLPL |  | specific CD8+ T expansions |  |
| ILHSLVTGV |  | specific CD8+ T expansions |  |
| YLWTTFFPL | expand specific CD8+ T cells | specific CD8+ T expansions |  |
| LLGETKVYV | expand specific CD8+ T cells | specific CD8+ T expansions |  |
| YLPYFLKSL |  | specific CD8+ T expansions |  |
| SLMQSGSPV |  | specific CD8+ T expansions |  |
| LLTSWHLYL |  | specific CD8+ T expansions |  |
| MLVTWELAL |  | specific CD8+ T expansions |  |
| FLGTRVTRV |  | specific CD8+ T expansions |  |
